Measured values published in US11412737B2, “Mixtures of beflubutamid or optically enriched forms thereof with a second herbicide” (FMC Corporation, priority 2016, dated 2022).

What was measured:
[1] = tested on: Blackgrass (ALOMY); experiment: pre-emergence test, weed control; type: in vivo; conditions: pre-emergent, 28 DAT
Experimental: (§1) Test compositions containing the test compounds were diluted with water to provide the appropriate test rate concentrations.
(§2) For pre-emergence testing, four disposable fiber flats (6 inch by 10 inch) for each rate of application of each herbicide solution were filled with top soil, to which seeds of each species were planted in furrows made by a template pressed on the top of the soil. The furrows were covered with soil after planting the seed and were watered well before application of the test compounds.
(§3) Fiber flats designated for treatment were placed in a spray chamber having a static platform and a movable sprayer and the height of the spray nozzle was 10.5 inches above the soil level. Once the sprayer was calibrated using water for spray volume of 30 gallons per acre, flats were sprayed with sprayer at a speed to receive a coverage equivalent of 30 gallons per acre. The application rates are those shown in the Tables below for the individual herbicidal solutions and the herbicide compositions of this invention. The pre-emergence flats were immediately placed in the greenhouse and watered lightly after treatment. Thereafter they were regularly watered and fertilized for the duration of the test.
(§4) The control of weeds was evaluated in each experimental test at 21 for wheat and 28 days after treatment (DAT) for all species. Data were analyzed using Minitab software at 95% confidence interval. The results, shown as an average of the replications, were compared with results observed in untreated control flats in the same tests. Percent control was determined by a method similar to the 0 to 100 rating system disclosed in “Research Methods in Weed Science,” 2nd ed., B. Truelove, Ed.; Southern Weed Science Society; Auburn University, Auburn, Ala., 1977. The rating system is as follows in Table 1.

[2] = tested on: Yellow foxtail (SETLU); experiment: pre-emergence test, weed control; type: in vivo; conditions: pre-emergent, 28 DAT
Experimental: as §1, §2, §3, §4

[3] = tested on: Green foxtail (SETVI); experiment: pre-emergence test, weed control; type: in vivo, Setaria viridis; conditions: pre-emergent, 28 DAT
Experimental: as §1, §2, §3, §4

[4] = tested on: Palmer amaranth (AMAPA); experiment: pre-emergence test, weed control; type: in vivo, Amaranthus palmeri; conditions: pre-emergent, 28 DAT, (−)-BFL >95% e.e., rate g ai/ha by row: r6 62, r7 125, r8 125, r9 250, r10 445, r11 890, r12 45, r13 90, r14 62+125, r15 125+125, r16 62+250, r17 125+250, r18 62+445, r19 125+445, r20 62+890, r21 125+890, r22 62+45, r23 125+45, r24 62+90, r25 125+90
Experimental: as §1, §2, §3, §4

[5] = tested on: Wild oat (AVEFA); experiment: pre-emergence test, weed control; type: in vivo, Avena fatua; conditions: pre-emergent; for percentage of weed control, AVEFA: 28 DAT; for percentage of weed control, Wild Oat AVEFA: 21 DAT, rate g ai/ha by row: r4 94, r5 125, r6 250, r7 125, r8 250, r9 500, r10 94+125, r11 125+125, r12 94+250, r13 125+250, r14 94+500, r15 125+500
Experimental: as §1, §2, §3, §4

[6] = tested on: crop and weed species; experiment: pre-emergence test, several crop and weed species together; type: in vivo; conditions: pre-emergent, 28 DAT (Tables 16 and 17), >95% e.e.
Experimental: as §1, §2
Fiber flats designated for treatment were placed in a spray chamber having a static platform and a movable sprayer and the height of the spray nozzle was 10.5 inches above the soil level. Once the sprayer was calibrated using water for spray volume of 30 gallons per acre, flats were sprayed with sprayer at a speed to receive a coverage equivalent of 30 gallons per acre. […]
The control of weeds was evaluated in each experimental test at 21 for wheat and 28 days after treatment (DAT) for all species. Data were analyzed using Minitab software at 95% confidence interval. […] Percent control was determined by a method similar to the 0 to 100 rating system disclosed in “Research Methods in Weed Science,” 2nd ed., B. Truelove, Ed.; Southern Weed Science Society; Auburn University, Auburn, Ala., 1977. […]

[7] = tested on: Jimsonweed (DATST); experiment: pre-emergence test, weed control; type: in vivo, Datura stramonium; conditions: pre-emergent, 28 DAT; BFL at 62.5 g, PTX at 90 g, combination of both
Experimental: as §1, §2, §3, §4

[8] = tested on: Common lambsquarters (CHEAL); experiment: pre-emergence test, weed control; type: in vivo, Chenopodium album; conditions: pre-emergent, 28 DAT, (+)-BFL >95% e.e.; rate g ai/ha by row: r6 62.5, r7 125, r8 62.5, r9 125, r10 222, r11 445, r12 22.5, r13 45, r14 62.5+62.5, r15 125+62.5, r16 62.5+125, r17 125+125, r18 62.5+222, r19 125+222, r20 62.5+445, r21 125+445, r22 62.5+22.5, r23 125+22.5, r24 62.5+45, r25 125+45
Experimental: as §1, §2, §3, §4

[9] = tested on: Green foxtail (SETVI); experiment: post-emergence test, weed control; type: in vivo, Setaria viridis; conditions: post-emergent, 28 DAT; BFL at 187.5 g, PTX at 890 g, combination of both
Experimental: as §1
For post-emergence testing, seeds of each species for each rate of application of each herbicide solution were planted in 7.5 cm×7.5 cm plastic pots filled with potting soil. The seeds were germinated and the resulting plants were allowed to grow in a greenhouse until they reached a growth stage, such as height, suitable for testing. Treatments were applied using compressed air in a track spray chamber at 30 gallons/acre (280 L/ha) using a TeeJet 8001E nozzle at 40 psi (2.76 bars). Pots of post-emergent treated plants were returned to the greenhouse and not watered for 24 hours after treatment. Thereafter they were regularly watered and fertilized for the duration of the test.
as §4

[10] = tested on: Large crabgrass (DIGSA); experiment: pre-emergence test, weed control; type: in vivo; conditions: pre-emergent, 28 DAT, rate g ai/ha by row: r4 94, r5 50, r6 100, r7 52.5, r8 70, r9 94+52.5, r10 94+70, r11 50+52.5, r12 50+70, r13 100+52.5, r14 100+70
Experimental: as §1, §2, §3, §4

[11] = tested on: velvetleaf (IPOHE); experiment: pre-emergence test, weed control; type: in vivo; conditions: pre-emergent, 21 DAT, rate g ai/ha by row: r4 94, r5 125, r6 250, r7 125, r8 250, r9 500, r10 94+125, r11 125+125, r12 94+250, r13 125+250, r14 94+500, r15 125+500
Experimental: as §1, §2, §3, §4

[12] = tested on: Velvetleaf (ABUTH); experiment: pre-emergence test, weed control; type: in vivo, Abutilon theophrasti; conditions: pre-emergent, 21 DAT, rate g ai/ha by row: r4 94, r5 125, r6 250, r7 125, r8 250, r9 500, r10 94+125, r11 125+125, r12 94+250, r13 125+250, r14 94+500, r15 125+500
Experimental: as §1, §2, §3, §4

[13] = (−)-BFL >95% e.e., rate g ai/ha by row: r6 62, r7 125, r8 125, r9 250, r10 445, r11 890, r12 45, r13 90, r14 62+125, r15 125+125, r16 62+250, r17 125+250, r18 62+445, r19 125+445, r20 62+890, r21 125+890, r22 62+45, r23 125+45, r24 62+90, r25 125+90, 62 g ai/ha
[14] = (−)-BFL >95% e.e., rate g ai/ha by row: r6 62, r7 125, r8 125, r9 250, r10 445, r11 890, r12 45, r13 90, r14 62+125, r15 125+125, r16 62+250, r17 125+250, r18 62+445, r19 125+445, r20 62+890, r21 125+890, r22 62+45, r23 125+45, r24 62+90, r25 125+90, 125 g ai/ha
[15] = (+)-BFL >95% e.e., rate g ai/ha by row: r6 62.5, r7 125, r8 62.5, r9 125, r10 222, r11 445, r12 22.5, r13 45, r14 62.5+62.5, r15 125+62.5, r16 62.5+125, r17 125+125, r18 62.5+222, r19 125+222, r20 62.5+445, r21 125+445, r22 62.5+22.5, r23 125+22.5, r24 62.5+45, r25 125+45, 222 g ai/ha
[16] = (+)-BFL >95% e.e., rate g ai/ha by row: r6 62.5, r7 125, r8 62.5, r9 125, r10 222, r11 445, r12 22.5, r13 45, r14 62.5+62.5, r15 125+62.5, r16 62.5+125, r17 125+125, r18 62.5+222, r19 125+222, r20 62.5+445, r21 125+445, r22 62.5+22.5, r23 125+22.5, r24 62.5+45, r25 125+45, 445 g ai/ha
[17] = (−)-BFL >95% e.e., rate g ai/ha by row: r6 62, r7 125, r8 125, r9 250, r10 445, r11 890, r12 45, r13 90, r14 62+125, r15 125+125, r16 62+250, r17 125+250, r18 62+445, r19 125+445, r20 62+890, r21 125+890, r22 62+45, r23 125+45, r24 62+90, r25 125+90, 445 g ai/ha
[18] = (−)-BFL >95% e.e., rate g ai/ha by row: r6 62, r7 125, r8 125, r9 250, r10 445, r11 890, r12 45, r13 90, r14 62+125, r15 125+125, r16 62+250, r17 125+250, r18 62+445, r19 125+445, r20 62+890, r21 125+890, r22 62+45, r23 125+45, r24 62+90, r25 125+90, 890 g ai/ha
[19] = (+)-BFL >95% e.e., rate g ai/ha by row: r6 62.5, r7 125, r8 62.5, r9 125, r10 222, r11 445, r12 22.5, r13 45, r14 62.5+62.5, r15 125+62.5, r16 62.5+125, r17 125+125, r18 62.5+222, r19 125+222, r20 62.5+445, r21 125+445, r22 62.5+22.5, r23 125+22.5, r24 62.5+45, r25 125+45

CC[C@H](Oc1ccc(F)c(C(F)(F)F)c1)C(=O)NCc1ccccc1 [(−)-BFL, (2S)-2-[4-fluoro-3-(trifluoromethyl)phenoxy]-N-(phenylmethyl)butanamide]
percentage of weed control, ALOMY [1, 13]: 19%
percentage of weed control, ALOMY [1, 14]: 32%
percentage of weed control, SETLU [2, 13]: 86%
percentage of weed control, SETLU [2, 14]: 100%
percentage of weed control, SETVI [3, 13]: 80%
percentage of weed control, SETVI [3, 14]: 97%
percentage of weed control, AMAPA ([4]; 62 g ai/ha): 70%
percentage of weed control, AMAPA ([4]; 125 g ai/ha): 97%
percentage of weed control, AVEFA [5, 13]: 7%
percentage of weed control, AVEFA [5, 14]: 11%
herbicidal activity of the enantiomers compared [6]: the more active enantiomer

CCOCCN(C(=O)CCl)C(=C(C)C)c1ccccc1 [PTX, Pethoxamid]
percentage of weed control, ALOMY [1, 15]: 70%
percentage of weed control, ALOMY [1, 16]: 96%
percentage of weed control, ALOMY [1, 17]: 59%
percentage of weed control, ALOMY [1, 18]: 83%
percentage of weed control, SETLU [2, 19]: 99%
percentage of weed control, SETLU [2, 17]: 99%
percentage of weed control, SETLU [2, 18]: 100%
percentage of weed control, SETVI [3, 19]: 99%
percentage of weed control, SETVI [3, 17]: 98%
percentage of weed control, SETVI [3, 18]: 100%
control of jimsonweed [7]: 4%
percentage of weed control, CHEAL [8]: 100%
percentage of weed control, AMAPA ([4]; 445 g ai/ha): 98%
percentage of weed control, AMAPA ([4]; 890 g ai/ha): 100%
control of green foxtail [9]: 4%
percentage of weed control, AVEFA [5, 15]: 84%
percentage of weed control, AVEFA [5, 16]: 92%
percentage of weed control, AVEFA [5, 17]: 89%
percentage of weed control, AVEFA [5, 18]: 92%

O=C(Nc1ccc(F)cc1F)c1cccnc1Oc1cccc(C(F)(F)F)c1 [Diflufenican]
percentage of weed control, DIGSA ([10]; 50 g ai/ha): 18%
percentage of weed control, DIGSA ([10]; 100 g ai/ha): 30%

CCOCN(C(=O)CCl)c1c(C)cccc1CC [Acetochlor]
percentage of weed control, Morningglory IPOHE ([11]; 125 g ai/ha): 5%
percentage of weed control, Morningglory IPOHE ([11]; 250 g ai/ha): 6%
percentage of weed control, Morningglory IPOHE ([11]; 500 g ai/ha): 8%
percentage of weed control, Velvetleaf ABUTH ([12]; 125 g ai/ha): 10%
percentage of weed control, Velvetleaf ABUTH ([12]; 250 g ai/ha): 11%
percentage of weed control, Wild Oat AVEFA ([5]; 125 g ai/ha): 13%
percentage of weed control, Wild Oat AVEFA ([5]; 250 g ai/ha): 11%
